Results published in PubChem BioAssay (NCI).
Where “and” joins values, the source holds several entries; their conditions need not be identical. Identical values can stand only once.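 Five concentrations, 48 hours, 96-well plates. GI50 marks 50% less growth. TGI is the concentration that stops growth completely.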 Where a SMILES comes first, the peptide text is derived from it. [ ]: non-standard residue; d: D form. The star is where a group is joined. ξ: configuration not given here. NMeF = CN[C@@H](Cc1ccccc1)C(=O)O; NMeN = CN[C@@H](CC(N)=O)C(=O)O; NMeV = CN[C@H](C(=O)O)C(C)C; ξNMeV = CNC(C(=O)O)C(C)C; Boc = CC(C)(C)OC(=O)*; ξNMeA = CNC(C)C(=O)O; ξV = CC(C)C(N)C(=O)O

Experiments:
Assay in all cases: DTP human tumour cell line panel, 48 h
OVCAR-4 ovarian = test system: OVCAR-4 ovarian
U251 CNS = test system: U251 CNS
MOLT-4 leukemia = test system: MOLT-4 leukemia
LXFL 529 NSCLC = test system: LXFL 529 NSCLC
SK-MEL-5 melanoma = test system: SK-MEL-5 melanoma
MDA-MB-231 breast = test system: MDA-MB-231 breast
LOX IMVI melanoma = test system: LOX IMVI melanoma
NCI-H522 lung = test system: NCI-H522 lung
CAKI-1 renal = test system: CAKI-1 renal
DMS 273 small cell lung = test system: DMS 273 small cell lung
UACC-257 melanoma = test system: UACC-257 melanoma
HCT-116 colon = test system: HCT-116 colon
M14 melanoma = test system: M14 melanoma
K-562 leukemia = test system: K-562 leukemia
T-47D breast = test system: T-47D breast
PC-3 prostate = test system: PC-3 prostate
NCI-H23 lung = test system: NCI-H23 lung
SF-295 CNS = test system: SF-295 CNS
XF 498 CNS = test system: XF 498 CNS
A498 renal = test system: A498 renal
SF-268 CNS = test system: SF-268 CNS
SF-539 CNS = test system: SF-539 CNS
SNB-19 CNS = test system: SNB-19 CNS
OVCAR-5 ovarian = test system: OVCAR-5 ovarian
KM12 colon = test system: KM12 colon
SNB-75 CNS = test system: SNB-75 CNS
HS 578T breast = test system: HS 578T breast
CCRF-CEM leukemia = test system: CCRF-CEM leukemia
DMS 114 small cell lung = test system: DMS 114 small cell lung
DLD-1 colon = test system: DLD-1 colon
NCI-H226 lung = test system: NCI-H226 lung
RPMI-8226 leukemia = test system: RPMI-8226 leukemia
MDA-N = test system: MDA-N
A549 NSCLC = test system: A549 NSCLC

`COC(=O)C(C)N(C)C(=O)[C@H](CC(N)=O)N(C)C(=O)[C@@H]1CCCN1C(=O)[C@H](C(C)C)N(C)C(=O)C(C(C)C)N(C)C(=O)[C@H](Cc1ccccc1)N(C)C(=O)C(NC(=O)OC(C)(C)C)C(C)C` (stereo partly drawn) (Boc-[ξV][NMeF][ξNMeV][NMeV]P[NMeN][ξNMeA]-OMe) was tested, and the TGI (OVCAR-4 ovarian) was > 50 µM and 87.5 µM, the GI50 (U251 CNS) was 16.9 µM and the TGI (U251 CNS) was 23 µM and 30.5 µM. For the same compound, the GI50 (MOLT-4 leukemia) was 11.1 µM, the TGI (MOLT-4 leukemia) was 21.5 µM and 33.6 µM and the TGI (LXFL 529 NSCLC) was 10.3 µM. The GI50 (SK-MEL-5 melanoma) was 15.2 µM, the TGI (SK-MEL-5 melanoma) was 50 µM and 28.5 µM and the TGI (MDA-MB-231 breast) was 50 µM. The GI50 (LOX IMVI melanoma) was 3.1 µM, the TGI (LOX IMVI melanoma) was 20.7 µM and 19.2 µM and the TGI (NCI-H522 lung) was 50 µM and 29.8 µM. For the same compound, the GI50 (CAKI-1 renal) was 26.9 µM, the TGI (CAKI-1 renal) was > 50 µM and 55.3 µM and the TGI (DMS 273 small cell lung) was 28.9 µM. For the same compound, the GI50 (UACC-257 melanoma) was 19.4 µM, the TGI (UACC-257 melanoma) was 50 µM and 39.4 µM and the TGI (HCT-116 colon) was 50 µM and 31.1 µM. For the same compound, the TGI (M14 melanoma) was 50 µM and 30.6 µM, the GI50 (K-562 leukemia) was 21 µM and the TGI (K-562 leukemia) was 50 µM and 57.2 µM. It also gave a TGI (T-47D breast) of 50 µM, a TGI (PC-3 prostate) of 50 µM and a GI50 (NCI-H23 lung) of 20.4 µM. The TGI (NCI-H23 lung) was 50 µM and 40.4 µM, the GI50 (SF-295 CNS) was 32.8 µM and the TGI (SF-295 CNS) was 26.3 µM and > 100 µM. The TGI (XF 498 CNS) was 28.9 µM, the GI50 (A498 renal) was 21.9 µM and the TGI (A498 renal) was 50 µM and 67 µM. The GI50 (SF-268 CNS) was 15.6 µM, the TGI (SF-268 CNS) was 50 µM and 29 µM and the GI50 (SF-539 CNS) was 18.1 µM. The TGI (SF-539 CNS) was 50 µM and 32.4 µM, the GI50 (SNB-19 CNS) was 16.9 µM and the TGI (SNB-19 CNS) was 50 µM and 30.8 µM. The GI50 (OVCAR-5 ovarian) was 97.2 µM, the TGI (OVCAR-5 ovarian) was over 100 µM and the GI50 (KM12 colon) was 18.8 µM. The TGI (KM12 colon) was 22.8 µM and 37.3 µM, the GI50 (SNB-75 CNS) was 17.2 µM and the TGI (SNB-75 CNS) was 21.1 µM and 31.9 µM. For the same compound, the TGI (HS 578T breast) was 23.6 µM, the GI50 (CCRF-CEM leukemia) was 10.8 µM and the TGI (CCRF-CEM leukemia) was 50 µM and 33.1 µM. For the same compound, the TGI (DMS 114 small cell lung) was 17.1 µM, the TGI (DLD-1 colon) was 31.8 µM and the GI50 (NCI-H226 lung) was 20.8 µM. For the same compound, the TGI (NCI-H226 lung) was 40.2 µM and 36.6 µM, the TGI (RPMI-8226 leukemia) was 41.9 µM and the TGI (MDA-N) was 50 µM. For the same compound, the GI50 (A549 NSCLC) was over 100 µM and the TGI (A549 NSCLC) was over 100 µM.
